Experimental data: PMC7156724, “Potent BRD4 inhibitor suppresses cancer cell-macrophage interaction” (Nature Communications, 2020)
Several values for one entry are separate records, joined by “and”; a condition that tells them apart may be missing. Equal values may be shown once.

What was measured:
[1] = Metabolic stability assay, human liver microsomes; details: in % (unit assumed)
Experimental: (§1) 7. Metabolic stability assay. The metabolic profile of NHWD-870 was determined using mouse, rat, dog, monkey, and human liver microsomes using the protocols […]
(§2) No. Compound ID Exat Mass Stock Conc.
(§3) 1) 100 mM potassium phosphate buffer, PH7.4; 2) 10mM MgCI2
(§4) 1) Intermediate solution: Dilute 5 μL of compound or control from stock solution (10 mM) with 45 uL DMSO,then mixed with 450 μL 1:1 Methanol/Water (Conc.: 10 0 […]
(§5) 2) Working solution: Dilute 50 μL from intermediate solution with 450 μL 100 mM potassium phosphate buffer (Conc.: 10 μM, 4.5%MeOH)
(§6) (3) NADPH regenerating system (final Isocitric dehydrogenase conc.= 1 unit/mL at […]
(§7) 1) β-Nicotinamide adenine dinucleotide phosphate, Vendor: sigma Cat. No. N0505
(§8) 2) Isocitric acid, Vendor: Sigma Cat. No. I1252
(§9) 3) Isocitric dehydrogenase, Vendor: sigma Cat. No. I2002
(§10) (4) Liver microsome solution preparation (final concentration o f 0.5 mg protein/mL) […]
(§11) Cold ACN including 100 ng/mL Tolbutamide and 100 ng/mL Labetalol as internal […]
(§12) 1) Add 10 μL compound or control working solution/well to all plates (T0, T5, T10, T20, T30, T60, NCF60) except matrix blank.
(§13) 2) Dispense 680 μL/well microsome solution to 96-well plate as reserv oir according to […]
(§14) plate map. Then add 80 μL/well to every plate by Apricot, incubate the mixture of microsome solution and compound at 37℃ for about 10 min.
(§15) 3) Add 10 μL 100 mM potassium phosphate buffer/well to NCF60, incubate at 37℃, […]
(§16) 4) After pre-warming, dispense 90 μL/well NADPH regenerating system to 96-well plate as reservoir according to the plate map. Then add 10 μL/well to every plate by Apricot to start reaction.
(§17) 5) Incubate at 37℃, start timer 2.
(§18) 6) Add 300 (μL/well) stop solution (cold in 4℃, including 100 ng/mL Tolbutamide and 100 ng/mL Labetalol) to terminate the reaction.
(§19) 7) The sampling plates are shaked for approx 10 min.
(§20) 8) Samples are centrifuged at 4000 rpm for 20 min under 4℃.
(§21) 9) While centrifuging, load 8×new 96-well plate with 300 μL HPLC water, then transfer 100 μL supernatant, mixed for LC/MS/MS.
(§22) Use equation of first order kinetics to calculate t1/2 and Clin t(mic): […]
(§23) Equation of first order kinetics: […]

[2] = Metabolic stability assay, dog liver microsomes; details: in % (unit assumed)
Experimental: as §1, §2, §3, §4, §5, §6, §7, §8, §9, §10, §11, §12, §13, §14, §15, §16, §17, §18, §19, §20, §21, §22, §23

[3] = Metabolic stability assay, mouse liver microsomes; details: in % (unit assumed)
Experimental: as §1, §2, §3, §4, §5, §6, §7, §8, §9, §10, §11, §12, §13, §14, §15, §16, §17, §18, §19, §20, §21, §22, §23

[4] = Metabolic stability assay, monkey liver microsomes; details: in % (unit assumed)
Experimental: as §1, §2, §3, §4, §5, §6, §7, §8, §9, §10, §11, §12, §13, §14, §15, §16, §17, §18, §19, §20, §21, §22, §23

[5] = Metabolic stability assay, rat liver microsomes; details: in % (unit assumed)
Experimental: as §1, §2, §3, §4, §5, §6, §7, §8, §9, §10, §11, §12, §13, §14, §15, §16, §17, §18, §19, §20, §21, §22, §23

[6] = system: TMD8 large B cell lymphoma; experiment: TMD8 large B cell lymphoma model tumor growth; type: in vivo, mouse; details: Fig.3c TMD-8, 25mg/kg p.o. QD x 21D, n=6, individual animals
From the text: (§24) PO, oral administration; QD, once daily; BID, twice daily. b–d Tumor growth curves for A2780 ovarian tumor (n = 5) (b), TMD8 large B cell lymphoma (n = 6) (c), and B16F10 melanoma (n = 5) (d) bearing mice treated with the indicated compounds once daily for 11-21 days. e, f Tumor growth curves for A375 melanoma (n = 6) (e), and patient-derived xenograft (PDX) of melanoma (n = 5) (f) bearing mice treated with the indicated compounds once daily (5 days on, 2 days off) for 21 days. For d–f, NHWD-870 used is NHWD-870-HCl synthesized using Suzuki coupling route. Data are presented as mean ± SEM in (a, b, d, f) and mean + SEM in (c, e). p values were calculated using two-tailed, unpaired t tests. *p < 0.05; **p < 0.01; ***p < 0.001. Source data are provided as a Source Data file.
(§25) 4–6 weeks old female BALB/c nude mice were used for most experiments, with the exception of 6–8 weeks old female C57BL/6 mice were used for B16F10 experiments, and 6–8 weeks old male BALB/c nude mice and SD rats were used for pharmacokinetic experiments. All animals were purchased from Shanghai SIPPR-Bk Lab Animal Co., Ltd. All animals were housed under a regimen of 12 h light/12 h dark cycles and specific pathogen-free conditions. 5×10^6 NCI-H526, ES-2, MDA-MB231, A2780, A375, B16F10, and TMD-8 cells (0.1 ml) were injected subcutaneously into female nude mice. The melanoma patient-derived xenograft model was derived from a human melanoma sample (BRAF, NARS and NF1 wild type, and p53 mutant) removed from a patient in Xiangya Hospital. Surgically removed tumor fragments were implanted subcutaneously into female NSG mice. When the tumors grew to ~1000 mm^3, they were harvested and cryopreserved or immediately re-implanted for expansion or experiments. Mouse body weight and tumor sizes were measured every 3 days. Once the tumors grew to 150–200 mm^3, mice were treated with the compounds as described in the Figures. 1 × 10^6 A2780 cells (1 ml) were injected into the abdominal cavity of nude mice. Ascitic volume and tumor weight were measured by an electronic balance. All the procedures were evaluated and approved by the Institutional Animal Care and Use Committee of Central South University and Yale University.

B16F10 mouse melanoma = B16F10 mouse melanoma syngeneic model tumor growth; type: in vivo, C57BL/6 mice; parameters: Tumor volume: unit not given here; details: Fig.3d, individual animals
From the text: as §24, §25

O=C(O)Cc1ccccc1Nc1c(Cl)cccc1Cl [Diclofenac]
Remaining in Human liver microsomes (Sup Fig.6e) ([1]; time 0): 100 | Remaining in Human liver microsomes (Sup Fig.6e) ([1]; time 5): 68.568 | Remaining in Human liver microsomes (Sup Fig.6e) ([1]; time 10): 50.449 | Remaining in Human liver microsomes (Sup Fig.6e) ([1]; time 20): 28.02 | Remaining in Human liver microsomes (Sup Fig.6e) ([1]; time 30): 16.826 | Remaining in Human liver microsomes (Sup Fig.6e) ([1]; time 60): 2.933 | Remaining in Dog liver microsomes (Sup Fig.6c) ([2]; time 0): 100 | Remaining in Dog liver microsomes (Sup Fig.6c) ([2]; time 5): 94.367 | Remaining in Dog liver microsomes (Sup Fig.6c) ([2]; time 10): 98.224 | Remaining in Dog liver microsomes (Sup Fig.6c) ([2]; time 20): 89.21 | Remaining in Dog liver microsomes (Sup Fig.6c) ([2]; time 30): 87.634 | Remaining in Dog liver microsomes (Sup Fig.6c) ([2]; time 60): 78.588 | Remaining in mouse liver microsomes (Sup Fig.6a) ([3]; time 0): 100 | Remaining in mouse liver microsomes (Sup Fig.6a) ([3]; time 5): 92.277 | Remaining in mouse liver microsomes (Sup Fig.6a) ([3]; time 10): 89.557 | Remaining in mouse liver microsomes (Sup Fig.6a) ([3]; time 20): 85.421 | Remaining in mouse liver microsomes (Sup Fig.6a) ([3]; time 30): 78.177 | Remaining in mouse liver microsomes (Sup Fig.6a) ([3]; time 60): 51.477 | Remaining in Monkey liver microsomes (Sup Fig.6d) ([4]; time 0): 100 | Remaining in Monkey liver microsomes (Sup Fig.6d) ([4]; time 5): 88.217 | Remaining in Monkey liver microsomes (Sup Fig.6d) ([4]; time 10): 88.366 | Remaining in Monkey liver microsomes (Sup Fig.6d) ([4]; time 20): 94.477 | Remaining in Monkey liver microsomes (Sup Fig.6d) ([4]; time 30): 85.252 | Remaining in Monkey liver microsomes (Sup Fig.6d) ([4]; time 60): 84.048 | Remaining in rat liver microsomes (Sup Fig.6b) ([5]; time 0): 100 | Remaining in rat liver microsomes (Sup Fig.6b) ([5]; time 5): 75.339 | Remaining in rat liver microsomes (Sup Fig.6b) ([5]; time 10): 59.077 | Remaining in rat liver microsomes (Sup Fig.6b) ([5]; time 20): 35.911 | Remaining in rat liver microsomes (Sup Fig.6b) ([5]; time 30): 22.814 | Remaining in rat liver microsomes (Sup Fig.6b) ([5]; time 60): 4.586

C=CC(=O)N1CCC[C@@H](n2nc(-c3ccc(Oc4ccccc4)cc3)c3c(N)ncnc32)C1 [Ibrutinib, reference compound]
Tumor volume ([6]; day 0): 154.352 mm^3 and 126.234 mm^3 and 92.4707 mm^3 and 208.237 mm^3 and 189.187 mm^3 and 112.682 mm^3 | Tumor volume ([6]; day 3): 237.85 mm^3 and 276.464 mm^3 and 91.3933 mm^3 and 282.765 mm^3 and 163.343 mm^3 and 107.8 mm^3 | Tumor volume ([6]; day 7): 352.832 mm^3 and 423.619 mm^3 and 205.187 mm^3 and 365.185 mm^3 and 345.367 mm^3 and 135.53 mm^3 | Tumor volume ([6]; day 10): 473.704 mm^3 and 751.605 mm^3 and 389.433 mm^3 and 510.345 mm^3 and 486.864 mm^3 and 230.549 mm^3 | Tumor volume ([6]; day 14): 835.097 mm^3 and 1026.1 mm^3 and 435.155 mm^3 and 707.68 mm^3 and 720.134 mm^3 and 302.373 mm^3 | Tumor volume ([6]; day 17): 1017.47 mm^3 and 1815.12 mm^3 and 476.012 mm^3 and 822.388 mm^3 and 594.62 mm^3 and 293.12 mm^3 | Tumor volume ([6]; day 21): 1538.44 mm^3 and 2230.02 mm^3 and 727.616 mm^3 and 1254.35 mm^3 and 985.284 mm^3 and 887.285 mm^3

Cc1nnn(C)c1-c1cnc2c3c4cnn(C)c4ccc3n([C@H](c3ccccc3)C3CCOCC3)c2c1 [compound 870]
Tumor volume (B16F10 mouse melanoma; 1mg/kg, day 0): 0 | Tumor volume (B16F10 mouse melanoma; 1mg/kg, day 3): 56 and 75 and 36 and 4 and 137 | Tumor volume (B16F10 mouse melanoma; 1mg/kg, day 7): 88 and 81 and 51 and 56 and 405 | Tumor volume (B16F10 mouse melanoma; 1mg/kg, day 11): 198 and 63 and 191 and 162 and 405 | Tumor volume (B16F10 mouse melanoma; 2mg/kg, day 0): 0 | Tumor volume (B16F10 mouse melanoma; 2mg/kg, day 3): 14 and 36 and 172 and 3.5 and 2.5 | Tumor volume (B16F10 mouse melanoma; 2mg/kg, day 7): 40 and 75 and 288 and 2.1 and 2.5 | Tumor volume (B16F10 mouse melanoma; 2mg/kg, day 11): 0 and 237 and 500 and 2.5 and 1.6
